SMILES strings stand for the structures. Entries after “also recorded” stand apart in the source; their conditions may differ.

Data set [1] is classed as in vivo. The settings on record: CT26 tumor mice, 200 μg doxorubicin i.v. three times at intervals of two days, over 33 days.
For data set [2], the system named is Colorectal cancer mouse tumor models (CT26 tumor model). As to the kind of experiment: In vivo tumor growth inhibition. The settings on record: CT26 tumor mice, 200 μg doxorubicin i.v. three times at intervals of two days, over 33 days, versus PBS blank group. The procedure: Experiments were conducted to compare and investigate the ability of doxorubicin-conjugated dextran-based nanoparticles whether the nanoparticles could be used as a therapeutic agent capable of inhibiting tumor growth. Colorectal cancer mouse tumor models (CT26 tumor model) were used as tumor models in the experiments. 5×10^6 cells were injected into the flank of mice, and after 10 days, the tumors were visually recognized, and the mice were used for the experiments. The experiments were started by dividing the animal models into a blank group treated with PBS, a group treated with free doxorubicin (free DOX), and a group treated with doxorubicin-conjugated PEG-DNP (DOX@PEG-DNP)). The number of mice corresponding to each group was three, and each administration material was administered to the mouse tumor models via intravenous injection three times at intervals of two days. Here, the amounts of doxorubicin administered to the group treated with free doxorubicin and the group treated with doxorubicin-conjugated PEG-DNP (DOX@PEG-DNP) were 200 μg.
The size of tumors and the weight of mice in the tumor model were checked over 33 days, and the measurement results were monitored and compared. […] As time passed, there was a slight difference in body weight among the groups, but this was thought to be due to the difference of tumor size in the respective groups.

With `COc1cccc2c1C(=O)c1c(O)c3c(c(O)c1C2=O)C[C@@](O)(C(=O)CO)C[C@@H]3O[C@H]1C[C@H](N)[C@H](O)[C@H](C)O1` [free doxorubicin, doxorubicin], in data set [1], the body weight change entry was “the body weight was not rapidly reduced”. Further, the tumor growth inhibition entry in data set [2] is on record as “the tumor growth rate of only one of three mice was not inhibited; also recorded: surely inhibited the tumor growth rate compared with the blank group”.

Source of the values: patent publication US10954348B2, “Biocompatible nanoparticle and use thereof” (KYUNGPOOK NATIONAL UNIVERSITY INDUSTRY-ACADEMIC COOPERATION …, priority 2016, dated 2021).
